Reference: the NIST ThermoML archive (doi:10.1016/j.jct.2017.08.004)
± gives the expanded uncertainty stated by the source.

Assay: molar heat capacity at constant pressure
Settings: 101.33 kPa, Crystal

OC[C@@H](O)[C@@H](O)[C@H](O)[C@H](O)CO [D-mannitol]
molar heat capacity at constant pressure [J/K/mol]
Settings	Small sample (50 mg) DSC	relaxation calorimetry
1 K	–	0.001199 ± 0.00015
1.923 K	–	0.006707 ± 0.00057
2 K	–	0.007583 ± 0.00052
2.139 K	–	0.009192 ± 0.00076
2.373 K	–	0.01256 ± 0.00095
2.634 K	–	0.01689 ± 0.0013
2.928 K	–	0.02301 ± 0.0017
3 K	–	0.02469 ± 0.0016
3.249 K	–	0.03152 ± 0.0023
3.602 K	–	0.04303 ± 0.0031
3.997 K	–	0.05809 ± 0.0041
4 K	–	0.05872 ± 0.0037
4.435 K	–	0.07904 ± 0.0056
4.92 K	–	0.1115 ± 0.0079
5 K	–	0.1167 ± 0.0073
5.459 K	–	0.1535 ± 0.011
6 K	–	0.2067 ± 0.013
6.057 K	–	0.2121 ± 0.015
6.719 K	–	0.2951 ± 0.021
7 K	–	0.3376 ± 0.021
7.454 K	–	0.4159 ± 0.029
8 K	–	0.5187 ± 0.032
8.269 K	–	0.5829 ± 0.041
9 K	–	0.7614 ± 0.047
9.171 K	–	0.8041 ± 0.056
10 K	–	1.071 ± 0.066
10.2 K	–	1.131 ± 0.079
11.29 K	–	1.565 ± 0.11
12.52 K	–	2.163 ± 0.15
13.89 K	–	2.945 ± 0.21
15 K	–	3.67 ± 0.23
15.42 K	–	3.976 ± 0.28
17.11 K	–	5.278 ± 0.37
18.99 K	–	6.927 ± 0.48
20 K	–	7.832 ± 0.48
21.08 K	–	8.9 ± 0.36
23.4 K	–	11.29 ± 0.46
25 K	–	13.01 ± 0.8
25.98 K	–	14.06 ± 0.57
28.84 K	–	17.28 ± 0.7
30 K	–	18.66 ± 1.1
32.02 K	–	20.91 ± 0.85
35 K	–	24.4 ± 1.5
35.55 K	–	25.01 ± 1
39.45 K	–	29.53 ± 1.2
40 K	–	30.07 ± 1.8
43.79 K	–	34.41 ± 1.4
45 K	–	35.64 ± 2.2
48.59 K	–	39.53 ± 1.6
50 K	–	41.11 ± 2.5
53.92 K	–	45.29 ± 1.8
55 K	–	46.48 ± 2.8
59.84 K	–	51.45 ± 2.1
60 K	–	51.67 ± 3.2
65 K	–	56.63 ± 3.5
66.4 K	–	58.03 ± 2.4
70 K	–	61.48 ± 3.8
73.71 K	–	64.84 ± 2.6
75 K	–	66.19 ± 4.1
80 K	–	70.77 ± 4.3
81.8 K	–	72.99 ± 3
85 K	–	75.22 ± 4.6
90 K	–	79.54 ± 4.9
90.8 K	–	80.09 ± 3.3
95 K	–	83.75 ± 5.1
100 K	–	87.87 ± 5.4
100.74 K	–	87.67 ± 3.6
110 K	–	95.83 ± 5.9
110.88 K	–	96.15 ± 3.9
120 K	–	103.5 ± 6.3
120.83 K	–	104.57 ± 4.2
130 K	–	110.93 ± 6.8
130.91 K	–	112.04 ± 4.5
140 K	–	118.19 ± 7.2
140.97 K	–	119.24 ± 4.8
150 K	–	125.32 ± 7.7
151.12 K	–	126.15 ± 5.1
160 K	–	132.36 ± 8.1
161.2 K	–	133.18 ± 5.4
170 K	–	139.33 ± 8.5
171.28 K	–	140.05 ± 5.7
180 K	–	146.27 ± 9
181.37 K	–	147.35 ± 6
188.15 K	143.51 ± 23	–
189.15 K	144.52 ± 23	–
190 K	–	153.2 ± 9.4
190.15 K	145.73 ± 23	–
191.15 K	146.73 ± 24	–
191.44 K	–	154.23 ± 6.3
192.15 K	147.51 ± 24	–
193.15 K	148.54 ± 24	–
194.15 K	149.99 ± 24	–
195.15 K	151.06 ± 24	–
196.15 K	152.24 ± 24	–
197.15 K	153.48 ± 25	–
198.15 K	154.54 ± 25	–
199.15 K	155.53 ± 25	–
200 K	–	160.12 ± 9.8
200.15 K	156.46 ± 25	–
201.15 K	157.4 ± 25	–
201.56 K	–	160.73 ± 6.5
202.15 K	158.14 ± 25	–
203.15 K	158.99 ± 26	–
204.15 K	159.96 ± 26	–
205.15 K	160.76 ± 26	–
206.15 K	161.64 ± 26	–
207.15 K	162.47 ± 26	–
208.15 K	163.24 ± 26	–
209.15 K	163.78 ± 26	–
210 K	–	167.07 ± 10
210.15 K	164.68 ± 26	–
211.15 K	165.46 ± 27	–
211.67 K	–	167.61 ± 6.8
212.15 K	166.24 ± 27	–
213.15 K	167.09 ± 27	–
214.15 K	167.92 ± 27	–
215.15 K	168.49 ± 27	–
216.15 K	169.55 ± 27	–
217.15 K	170.24 ± 27	–
218.15 K	170.94 ± 27	–
219.15 K	171.88 ± 28	–
220 K	–	174.05 ± 11
220.15 K	172.81 ± 28	–
221.15 K	173.38 ± 28	–
221.78 K	–	175.44 ± 7.1
222.15 K	174.15 ± 28	–
223.15 K	174.98 ± 28	–
224.15 K	175.72 ± 28	–
225.15 K	176.52 ± 28	–
226.15 K	177.3 ± 28	–
227.15 K	177.96 ± 29	–
228.15 K	178.66 ± 29	–
229.15 K	179.32 ± 29	–
230 K	–	181.07 ± 11
230.15 K	179.98 ± 29	–
231.15 K	180.68 ± 29	–
231.88 K	–	182.4 ± 7.4
232.15 K	181.3 ± 29	–
233.15 K	182.34 ± 29	–
234.15 K	182.94 ± 29	–
235.15 K	183.75 ± 30	–
236.15 K	184.67 ± 30	–
237.15 K	185.22 ± 30	–
238.15 K	186 ± 30	–
239.15 K	186.79 ± 30	–
240 K	–	188.14 ± 12
240.15 K	187.46 ± 30	–
241.15 K	188.04 ± 30	–
241.89 K	–	189.63 ± 7.7
242.15 K	188.69 ± 30	–
243.15 K	189.39 ± 30	–
244.15 K	190.16 ± 31	–
245.15 K	190.77 ± 31	–
246.15 K	191.37 ± 31	–
247.15 K	192.19 ± 31	–
248.15 K	192.92 ± 31	–
249.15 K	193.73 ± 31	–
250 K	–	195.26 ± 12
250.15 K	194.6 ± 31	–
251.15 K	195.14 ± 31	–
252.03 K	–	197.13 ± 8
252.15 K	195.91 ± 31	–
253.15 K	196.71 ± 32	–
254.15 K	197.56 ± 32	–
255.15 K	198.46 ± 32	–
256.15 K	199.17 ± 32	–
257.15 K	199.9 ± 32	–
258.15 K	200.87 ± 32	–
259.15 K	201.58 ± 32	–
260 K	–	202.45 ± 12
260.15 K	202.15 ± 32	–
261.15 K	203.09 ± 33	–
262.09 K	–	203.85 ± 8.3
262.15 K	203.84 ± 33	–
263.15 K	204.4 ± 33	–
264.15 K	205.1 ± 33	–
265.15 K	205.89 ± 33	–
266.15 K	206.4 ± 33	–
267.15 K	207.11 ± 33	–
268.15 K	207.89 ± 33	–
269.15 K	208.64 ± 34	–
270 K	–	209.71 ± 13
270.15 K	209.5 ± 34	–
271.15 K	210.37 ± 34	–
272.12 K	–	211.38 ± 8.6
272.15 K	211.22 ± 34	–
273.15 K	211.63 ± 34	212.01 ± 13
274.15 K	212.27 ± 34	–
275.15 K	213.11 ± 34	–
276.15 K	213.85 ± 34	–
277.15 K	214.68 ± 34	–
278.15 K	215.33 ± 35	–
279.15 K	216.09 ± 35	–
280 K	–	217.04 ± 13
280.15 K	216.75 ± 35	–
281.15 K	217.54 ± 35	–
282.15 K	218.34 ± 35	–
282.18 K	–	219 ± 8.9
283.15 K	219.11 ± 35	–
284.15 K	219.88 ± 35	–
285.15 K	220.37 ± 35	–
286.15 K	221.11 ± 36	–
287.15 K	221.79 ± 36	–
288.15 K	222.53 ± 36	–
